“And” between values parts separate entries of the source, which are not always exact repeats. Equal values may be shown once.
Experiments:
EphrinB2-EphB2 [1] = target: T1, EphrinB2-EphB2 (Homo sapiens, UniProt P29323); test: Octet tetramerization inhibition, immobilized human EphrinB2 binding to 50 nM soluble human EphB2
T1 construct: soluble human EphB1-His, EphB2-His, and EphB4-His ectodomains; commercially available human EphrinB1-Fc (EB1), EphrinB2-Fc (EB2), and EphrinB3-Fc (EB3) ectodomain proteins; purchased
T1 sequence (P29323 19-543 limits assumed): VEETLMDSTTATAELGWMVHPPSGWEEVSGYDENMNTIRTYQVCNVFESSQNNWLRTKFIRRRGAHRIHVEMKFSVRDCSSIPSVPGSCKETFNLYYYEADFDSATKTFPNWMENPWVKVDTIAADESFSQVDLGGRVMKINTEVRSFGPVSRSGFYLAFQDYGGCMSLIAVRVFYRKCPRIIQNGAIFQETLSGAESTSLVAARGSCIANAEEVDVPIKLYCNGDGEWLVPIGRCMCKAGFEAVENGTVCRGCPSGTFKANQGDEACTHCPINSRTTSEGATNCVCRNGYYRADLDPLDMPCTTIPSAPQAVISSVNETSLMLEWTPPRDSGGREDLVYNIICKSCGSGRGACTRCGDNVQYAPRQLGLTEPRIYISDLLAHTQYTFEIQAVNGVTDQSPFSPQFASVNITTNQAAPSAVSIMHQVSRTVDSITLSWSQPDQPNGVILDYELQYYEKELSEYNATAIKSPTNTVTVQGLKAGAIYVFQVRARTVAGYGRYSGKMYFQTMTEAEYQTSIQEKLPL

EphrinB2-EphB1 = target: T2, EphrinB2-EphB1 (Homo sapiens, UniProt P54762); test: Octet 80 sec association/500 sec dissociation, immobilized human EphrinB2-Fc binding to soluble human EphB1-His; settings: immobilized human EphrinB2, 25 nM soluble human EphB1; for EphB1 Inhibition Percent, Inhibition of Association ONLY: at 3.2 μM and 80 seconds; for EphB1 Inhibition Percent, Inhibition of Association-Dissociation: at 3.2 μM and 580 seconds
T2 construct: soluble human EphB1-His, EphB2-His, and EphB4-His ectodomains; commercially available human EphrinB1-Fc (EB1), EphrinB2-Fc (EB2), and EphrinB3-Fc (EB3) ectodomain proteins; purchased
T2 sequence (P54762 18-540 limits assumed): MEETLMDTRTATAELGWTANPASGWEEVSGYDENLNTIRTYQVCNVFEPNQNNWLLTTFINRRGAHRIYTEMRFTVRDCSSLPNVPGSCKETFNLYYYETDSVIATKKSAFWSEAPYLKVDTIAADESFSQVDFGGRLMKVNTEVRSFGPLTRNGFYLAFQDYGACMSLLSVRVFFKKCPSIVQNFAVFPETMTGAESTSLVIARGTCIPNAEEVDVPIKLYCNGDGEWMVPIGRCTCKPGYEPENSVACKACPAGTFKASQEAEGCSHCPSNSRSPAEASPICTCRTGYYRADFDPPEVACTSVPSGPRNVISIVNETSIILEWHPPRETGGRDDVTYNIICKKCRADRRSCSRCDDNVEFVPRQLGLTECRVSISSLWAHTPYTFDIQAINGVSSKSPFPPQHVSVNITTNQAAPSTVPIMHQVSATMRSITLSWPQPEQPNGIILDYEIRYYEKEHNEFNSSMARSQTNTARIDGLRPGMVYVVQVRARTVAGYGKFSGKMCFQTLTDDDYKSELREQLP
Experimental: (§1) In another experiment, whether certain A20 analogs might have specificity for different Eph receptors was tested. An Octet RED384 system was used to obtain biophysical ON-OFF binding data (association-dissociation) for the three different human EphrinB2-EphB1, EphrinB2-EphB2, and EphrinB2-EphB4 protein-protein interactions and to assess the effect of A20 chemicals on the binding kinetics.
(§2) FIGS. 72A-72C show three example Octet sensorgram response traces for the immobilized human EphrinB2 ectodomain protein binding to soluble forms of the human EphB1, EphB2, and EphB4 ectodomain proteins, in the absence or presence of an A20 chemical (buffer conditions are always PBSTD:PBS with 0.05% Tween-20, 1% DMSO, and +/− indicated chemical). After loading EphrinB2-Fc protein to Octet AHC biosensors, washing, and obtaining stable baseline measurements in the appropriate PBSTD (either with or without indicated chemical), the sensors are placed in its buffer that also contains the indicated soluble EphB protein for the association step (0-80″), and then returned to its buffer for the dissociation step (81″-580″). In each figure (FIGS. 72A-72C), a sensorgram run using 10 μM of the 2×HCl salt form of A20-I is compared to the no compound control run to exemplify the maximum level of reduced response signal typically obtained with a potent A20 chemical.
(§3) Because the response levels during the dissociation step plateau for the EphrinB2-EphB2 and EphrinB2-EphB1 interactions by the first 80″, AUCs were also calculated for run data encompassing the first 160″ of each experiment to account for both the 80″ association data (red asterisks) and the first 80″ of dissociation data (marked by green line and asterisks).
(§4) The selectivity of another A20 analog (a 3×HCL salt form of compound BQPB4) in comparison to previously tested compound, A20-1, was tested as described in Example 27 above.
(§5) Further to the experiments listed above, a series of dose-response experiments were conducted to determine the IC50 of a selected A20 chemical (A20-1) on the kinetics of human EphrinB2 ligand ectodomain protein binding to its cognate human EphB1, EphB2, and EphB4 receptor ectodomain proteins. FIG. 74A-74C are representative sensorgrams showing the effect of 0, 0.1, 0.2, 0.4, 0.8, 1.6, and 3.2 μM, concentrations of the 2×HCl salt of A20-I along with a 10 μM max standard (also A20-1) on three different Ephrin-EphB interactions (e.g., EphB1 in FIG. 74A, EphB2 in FIG. 74B and EphB4 in FIG. 74C). […] Additional IC50 values were determined at specific timepoints, at 75″ into the association step and at 55″ into the dissociation step (135″).
(§6) All absolute and relative IC50 values are provided in the Table 6 below, where absolute are based off the full binding sensorgram traces, and relative are based off of the max control traces.
(§7) In another experiment, the % inhibition for various A20 analog chemicals against the three different EphrinB2-EphB protein interactions was determined. Specifically, the percent inhibition for immobilized human EphrinB2-Fc binding to 25 nM soluble human EphB1-His (FIG. 76A, enlarged in FIG. 76D), EphB2-His (FIG. 76B, enlarged in FIG. 76E), and EphB4-His (FIG. 76C, enlarged in FIG. 76F) with 3511-I, 8009-9255, QTM-Br, A19, A19-NO2, and IM (all at 3.2 μM) was determined.

EphrinB2-EphB2 [2] = target: T1, EphrinB2-EphB2; test: Octet 80 sec association/500 sec dissociation, immobilized human EphrinB2-Fc binding to soluble human EphB2-His; settings: immobilized human EphrinB2, 25 nM soluble human EphB2; for EphB2 Inhibition Percent, Inhibition of Association ONLY: at 3.2 μM and 80 seconds; for EphB2 Inhibition Percent, Inhibition of Association-Dissociation: at 3.2 μM and 580 seconds
Experimental: as §1, §2, §3, §4, §5, §6, §7

EphrinB2-EphB4 = target: T3, EphrinB2-EphB4 (Homo sapiens, UniProt P54760); test: Octet 80 sec association/500 sec dissociation, immobilized human EphrinB2-Fc binding to soluble human EphB4-His; settings: for EphB4 Inhibition Percent, Inhibition of Association ONLY: at 3.2 μM and 80 seconds; for EphB4 Inhibition Percent, Inhibition of Association ONLY / EphB4 Inhibition Percent, Inhibition of Association-Dissociation: immobilized human EphrinB2, 25 nM soluble human EphB4; for EphB4 Inhibition Percent, Inhibition of Association-Dissociation: at 3.2 μM and 580 seconds
T3 construct: soluble human EphB1-His, EphB2-His, and EphB4-His ectodomains; commercially available human EphrinB1-Fc (EB1), EphrinB2-Fc (EB2), and EphrinB3-Fc (EB3) ectodomain proteins; purchased
T3 sequence (P54760 16-539 limits assumed): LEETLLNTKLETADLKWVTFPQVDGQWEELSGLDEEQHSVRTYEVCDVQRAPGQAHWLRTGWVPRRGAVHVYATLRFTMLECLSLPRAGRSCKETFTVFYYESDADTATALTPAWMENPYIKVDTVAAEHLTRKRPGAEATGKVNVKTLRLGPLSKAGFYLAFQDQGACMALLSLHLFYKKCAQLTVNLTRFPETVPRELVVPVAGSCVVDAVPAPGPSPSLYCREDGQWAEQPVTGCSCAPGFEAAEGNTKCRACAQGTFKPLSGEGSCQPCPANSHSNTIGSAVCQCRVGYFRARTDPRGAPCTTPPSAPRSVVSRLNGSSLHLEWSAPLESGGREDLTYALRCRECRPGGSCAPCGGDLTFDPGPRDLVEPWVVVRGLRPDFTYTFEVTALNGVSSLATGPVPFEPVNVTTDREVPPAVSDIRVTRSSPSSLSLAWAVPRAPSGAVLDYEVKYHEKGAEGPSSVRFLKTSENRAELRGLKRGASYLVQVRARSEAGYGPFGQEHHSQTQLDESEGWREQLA
Experimental: as §1, §2, §3, §4, §5, §6, §7

[3] = Absolute AUC/IC50, Table A, EphrinB2-EphB2
[4] = Absolute Association IC50 (300 sec), Table A, EphrinB2-EphB2
[5] = Absolute Dissociation IC50 (450 sec), Table A, EphrinB2-EphB2
[6] = Relative Association IC50 (300 sec), Table A, EphrinB2-EphB2
[7] = Relative Dissociation IC50 (450 sec), Table A, EphrinB2-EphB2
[8] = Relative AUC/IC50, Table A, EphrinB2-EphB2, compound 7: association only

| Compound | tetramerization inhibitor activity (EphrinB2-EphB2 [1]) | disruption of unsurmountable tetramer (EphrinB2-EphB2 [1]; 0.8-3.2 μM) | IC50 (EphrinB2-EphB2 [1]; [3]) [µM] | IC50 (EphrinB2-EphB2 [1]; [4]) [µM] | IC50 (EphrinB2-EphB2 [1]; [5]) [µM] | IC50 (EphrinB2-EphB2 [1]; [6]) [µM] | IC50 (EphrinB2-EphB2 [1]; [7]) [µM] | EphB1 Inhibition Percent, Inhibition of Association ONLY (EphrinB2-EphB1) | EphB1 Inhibition Percent, Inhibition of Association-Dissociation (EphrinB2-EphB1) | EphB2 Inhibition Percent, Inhibition of Association ONLY (EphrinB2-EphB2 [2]) | EphB2 Inhibition Percent, Inhibition of Association-Dissociation (EphrinB2-EphB2 [2]) | EphB4 Inhibition Percent, Inhibition of Association ONLY (EphrinB2-EphB4) | EphB4 Inhibition Percent, Inhibition of Association-Dissociation (EphrinB2-EphB4) | IC50 (EphrinB2-EphB2 [1]; [8]) [µM] | IC50 (EphrinB2-EphB2 [1]; tetramerization inhibitor IC50 (relative), association step, surmountable tetramer) [µM] | selectivity among EphrinB2-EphB1/B2/B4 (EphrinB2-EphB4; 3.2 μM) |
| --- | --- | --- | --- | --- | --- | --- | --- | --- | --- | --- | --- | --- | --- | --- | --- | --- |
| COc1ccc(N2CCN(Cc3ccc(O)c4ncccc34)CC2)cc1 [Compound 72, 5-((4-(4-methoxyphenyl)piperazin-1-yl)methyl)quinolin-8-ol] | exhibit strong IC50 values | ability to disrupt some of the unsurmountable tetramer | 2.29 | 2.51 | 1.51 | 1.2 | 1.07 | 30.0% | 44.5% | 39.4% | 60.2% | 19.8% | 33.2% | – | – | – |
| Oc1c(I)cc(CN2CCN(Cc3ccc(Br)cc3)CC2)c2cccnc12 [Compound 46, 5-((4-(4-bromobenzyl)piperazin-1-yl)methyl)-7-iodoquinolin-8-ol] | exhibit strong IC50 values | – | 0.63 | 0.72 | 0.69 | 0.48 | 0.51 | 51.6% | 57.2% | 53.0% | 69.6% | 18.1% | 32.0% | 0.52 | – | – |
| COc1ccc2[nH]cc(C(=O)N3CCN(c4ccc(Br)cc4)CC3)c2c1 [Compound 65, (4-(4-bromophenyl)piperazin-1-yl)(5-methoxy-1H-indol-3-yl)methanone] | – | – | > 1.6 | > 1.6 | > 1.6 | > 1.6 | > 1.6 | 22.2% | 28.6% | 5.6% | 46.4% | 20.2% | 19.0% | > 1.6 | – | – |
| O=S1(=O)CCN(Cc2cc(I)c(O)c3ncccc23)CC1 [Compound 19, 4-((8-hydroxy-7-iodoquinolin-1-ium-5-yl)methyl)thiomorpholin-4-ium 1,1-dioxide chloride] | – | – | > 1.6 | 1.6 | 1.41 | 0.83 | 0.81 | 33.9% | 50.1% | 53.7% | 71.4% | 12.9% | 36.2% | 0.69 | – | – |
| Nc1ccc(N2CCN(Cc3ccc(O)c4ncccc34)CC2)cc1 [Compound 39, 5-((4-(4-aminophenyl)piperazin-1-yl)methyl)quinolin-8-ol] | – | – | 3.09 | 3.02 | 2.83 | 2.75 | 2.25 | – | 16.9% and 8.0% | 33.9% and 31.2% | 46.4% and 45.6% | 0.4% and 0% | 6.9% and 5.5% | 1.7 | ~2 | less action toward EphB4 and EphB1 but high specificity for EphB2 |
| Oc1ccc(CN2CCN(c3ccccc3)CC2)c2cccnc12 [Compound 23, 8-hydroxy-5-((4-phenylpiperazin-1-ium-1-yl)methyl)quinolin-1-ium chloride] | – | – | > 1.6 | > 1.6 | > 1.6 | > 1.6 | > 1.6 | 30.8% and 16.2% | 41.2% and 24.8% | 66.0% and 38.5% | 79.1% and 49% | 23.1% and 12.1% | 26.7% and 17.9% | > 1.6 | – | – |
